Results taken from US6462174B1, “Amorphous compound” (AstraZeneca AB, priority 2001, dated 2002).

How the values were obtained:
[1] = Solubility in toluene (antisolvent); assay type: physicochemical
Method: When the volume was reduced to 100-150 ml, another portion of toluene was added and the procedure repeated.

[2] = cited from earlier work
[3] = Thermal Mechanical Analysis (TMA); assay type: physicochemical; settings: heating rate 10° C./min, 30-160° C.
Method: The method involves compressing 140 mg of material in a punch and die (3 mm) to 2 KN. The compressed pellet was then placed on the TMA and the 1.1 mm probe placed on the top face. A heating rate of 10° C./min was used and the sample was heated from 30-160° C.

[4] = Dynamic vapour sorption (DVS) stability test; assay type: physicochemical; settings: first sorption process (Cycle 1 Sorp), FIG. 3
[5] = Differential Scanning Calorimetry (DSC); assay type: physicochemical; settings: dry amorphous lisinopril
Method: Differential Scanning Calorimetry (DSC) was performed on approximately 0.5-3 mg sample, using a Mettler DSC820 instrument, according to standard methods, for example those described in Höhne et al. (1996) Differential scanning Calorimetry, Springer, Berlin.

Row | Structure (SMILES) | solubility in toluene [1] | effective half-life of accumulation ([2]; multiple dosing) | time to peak serum concentrations ([2]; oral administration) [h] | glass transition temperature [3] [°C] | physical stability to water-induced crystallisation (DVS) [4] | glass transition temperature (Tg) [5] [°C]
1 | NCCCC[C@H](NC(CCc1ccccc1)C(=O)O)C(=O)N1CCC[C@H]1C(=O)O (stereo partly drawn) [lisinopril, (S)-1-[N^2-(1-carboxy-3-phenylpropyl]-L-lysyl]-L-proline] | insoluble | about 12.6 hours | ≤ 7 |  |  | 
2 | NCCCC[C@H](NC(CCc1ccccc1)C(=O)O)C(=O)N1CCC[C@H]1C(=O)O (stereo partly drawn) [amorphous lisinopril, (S)-1-[N^2-(1-carboxy-3-phenylpropyl]-L-lysyl]-L-proline] |  |  |  | 129 | no expulsion of absorbed water due to recrystallisation was observed | 125
